Data from paper PMC10354055, “An optimized Nurr1 agonist provides disease-modifying effects in Parkinson’s disease models” (Nature Communications, 2023).
Several values for one entry are separate records, joined by “and”; a condition that tells them apart may be missing. Identical values can stand only once.

Experiments:
[1] = target: T1, Nur77 (Homo sapiens, UniProt P22736); assay: Luciferase reporter assay, Nur77 LBD, SK-N-BE(2)C cells; assay type: cell-based; settings: Fig. 1f, CQ 100 µM, 4A7C-301 20 µM, cytosporone B 10 µM
T1 construct: using LBD of NR4A subfamily members in SK-N-BE(2)C cells; expressed in transfected cells; host or cells: SK-N-BE(2)C

[2] = test system: MPTP-induced male mice; assay: Rotarod, sub-chronic MPTP-induced PD model mice; assay type: in vivo, mouse
Experimental: (§1) MPTP (Sigma-Aldrich) was intraperitoneally (i.p.) injected (30 mg/kg) for 5 days (Day 1-5). […] To test dyskinetic involuntary behavior, an L-DOPA injected group was included, which received 50 mg/kg of L-DOPA and 15 mg/kg of benserazide (Sigma-Aldrich) (i.p.) for 16 days (Day 1–16). All compounds were administered 6 h post-MPTP injection to avoid any effect of compounds on the MPTP metabolism in the brain. Motor and non-motor related behavior tests were performed on the following days as described in Fig. 4a in an assessor- and observer-blinded fashion. Pre-training and baseline setup for motor-related behaviors were performed 3 days prior to the injections. Mice were sacrificed and subjected to immunohistochemistry. Mice were housed at the Animal Care Facilities of McLean Hospital under a 12-h light/12-h dark cycle, ambient temperature and humidity. Animals were handled in accordance with McLean Hospital’s Institutional Animal Care and Use Committee (Protocol #: 2015N000002) and followed National Institutes of Health guidelines.
Mice were pre-trained on an automated 5-lane rotarod unit (10 rpm, 3 min) for 2 days and the baseline was measured (10 rpm, 90 sec) before the rotarod test (3 days before the MPTP injection or the first rotarod test at week 2). Rotarod measurements were performed using an accelerating protocol, accelerated smoothly from 2 to 30 rpm for 5 min. Time on the rotating rod was measured automatically by placing a trip switch under the floor beneath the rotating drum.

[3] = test system: MPTP-induced male mice; assay: Pole test, MPTP-induced PD model mice; assay type: in vivo, mouse
Experimental: as §1
Mice were trained to descend a vertical metal rod wrapped with rough tape (80 cm high, 12 mm diameter) once per day for 2 days, and then the baseline was measured before the pole test (3 days before the MPTP injection or the first pole test at week 2). Mice were placed head-upward on the pole and total descent time was recorded.

[4] = test system: MPTP-induced male mice; assay: Cylinder test, MPTP-induced PD model mice; assay type: in vivo, mouse
Experimental: as §1
Mice were placed in a transparent plastic cylinder (15.5 cm high, 12.7 cm diameter) with a mirror behind it. Spontaneous activity was recorded and measured as counting the number of rearing events for 3 min session. A rear was considered only when the mouse touched the wall of the cylinder with its forelimb paws while standing on its hindlimbs (vertical movement) to count meaningful physiological movements.

[5] = test system: MPTP-induced male mice; assay: Olfactory discrimination test, MPTP-induced PD model mice; assay type: in vivo, mouse; settings: Figure 4e, MPTP-induced mice, individual animal values
Experimental: as §1
The olfactory discrimination test was designed based on Prediger et al.. Briefly, mice were placed in a chamber (40 (w) × 20 (d) × 20 (h) cm) segmented with two identical compartments containing fresh sawdust (non-familiar odor) on one side and unchanged sawdust (familiar odor; maintained for 3 days before the test) on the other side. Mice could choose between one or another area by freely passing through an open door, for 5 min. Mice movements were monitored with EthoVision XT version 7.0 (Noldus) and time (s) and distance (cm) traveled in each compartment were recorded and analyzed.

[6] = test system: MPTP-induced male mice; assay: AIMs scoring (dyskinesia), MPTP-induced PD model mice; assay type: in vivo, mouse; settings: for AIMs score (20-140 min): Figure 4f, MPTP-induced mice, individual animal values
Experimental: Male C57BL/6 J mice (8–10 weeks, 25–30 g; Jackson Laboratories) were randomly assigned to 5 groups including vehicle (VEH), MPTP, MPTP + L-DOPA, MPTP + CQ and MPTP + 4A7C-301 (n ≥ 7 for each group). MPTP (Sigma-Aldrich) was intraperitoneally (i.p.) injected (30 mg/kg) for 5 days (Day 1-5). Different dosages of CQ (20, 40, and 80 mg/kg) and 4A7C-301 (1, 5, 20 mg/kg) were first tested to determine the effective dose window, then 40 and 5 mg/kg doses were finally selected for CQ and 4A7C-301 respectively to show the most prominent effects. CQ or 4A7C-301 was dissolved in PBS and administrated (i.p.) for 16 days starting with MPTP injection (Day 1-16). To test dyskinetic involuntary behavior, an L-DOPA injected group was included, which received 50 mg/kg of L-DOPA and 15 mg/kg of benserazide (Sigma-Aldrich) (i.p.) for 16 days (Day 1–16). All compounds were administered 6 h post-MPTP injection to avoid any effect of compounds on the MPTP metabolism in the brain. Motor and non-motor related behavior tests were performed on the following days as described in Fig. 4a in an assessor- and observer-blinded fashion. Pre-training and baseline setup for motor-related behaviors were performed 3 days prior to the injections. Mice were sacrificed and subjected to immunohistochemistry. Mice were housed at the Animal Care Facilities of McLean Hospital under a 12-h light/12-h dark cycle, ambient temperature and humidity. Animals were handled in accordance with McLean Hospital’s Institutional Animal Care and Use Committee (Protocol #: 2015N000002) and followed National Institutes of Health guidelines.
Abnormal involuntary movements (AIMs) were scored using the developed mouse dyskinesia rating scale as described in Sebastianutto et al.. Briefly, 4 mice were recorded simultaneously with a Swann HD Security System (B&H Photo-Video Inc.) for 2 min per session, every 20 min during the 140 min following drug injections (i.e., total 7 sessions), on every other or third day (Day 2, 4, 7, 9, 11, 13, and 16). Dyskinetic movements were scored for 3 subtypes of basic AIMs including axial, forelimb and orolingual AIMs, based on the severity scale from 0 to 4 which measures the duration of AIMs (0 = no dyskinesia; 1 = display dyskinesia for <50% of the observation time; 2 = display dyskinesia for >50% of the observation time; 3 = display dyskinesia for the entire observation period but ceased upon external stimuli; 4 = display continuous and unceasing dyskinesia). To get a better and more sensitive validation of mice dyskinesia, we included an amplitude AIMs score, which rates the degree of deviation of body part or muscle position from its resting position on a 0-4 scale as previously described. Finally, global AIMs score was calculated by multiplying basic AIMs and amplitude AIMs scores for each subtype on each session. Data points were plotted as the grand total of individual AIMs score on each testing day.

[7] = test system: MPTP-induced male mice; assay: IHC/stereology of TH+ fibers, TH+ DA neurons and NeuN+ neurons, MPTP-induced mice; assay type: in vivo, mouse; settings: MPTP-induced mice, individual animal values
Experimental: as §1
(§2) Images were acquired using a KEYENCE microscope and quantified as the number or optical density of immunoreactive cells using ImageJ software.
(§3) The numbers of TH^+ DA neurons, NeuN^+ neurons, pS129 αSyn^+ cells in the SN and Iba-1^+ microglia in the SN and striatum were stereologically counted in six coronal sections (30 µm thickness) taken every 6th section (180 µm intervals) for each brain. The boundaries of the SN and striatum were delimited at low magnification (4X) to estimate each total area. Immunoreactive cells were counted with images taken at high magnification (×40) by a single blinded investigator. The group mean of the total number of immunoreactive cells from each brain was transformed as percentage of the number in the control group (%). For AAV-αSyn-induced mice, the group mean of the total number of cells in the ipsilateral side was transformed as a percentage of that observed in the contralateral side.

[8] = test system: MPTP-induced male mice; assay: IHC of Iba-1+ microglia in STR and SNpc, MPTP-induced mice; assay type: in vivo, mouse; settings: MPTP-induced mice, individual animal values
Experimental: as §1, §2, §3

[9] = CQ 40, 4A7C-301 5, L-DOPA 50 mg/kg/day, i.p., 16 days

T1 sequence (P22736 360-595 limits assumed, species assumed): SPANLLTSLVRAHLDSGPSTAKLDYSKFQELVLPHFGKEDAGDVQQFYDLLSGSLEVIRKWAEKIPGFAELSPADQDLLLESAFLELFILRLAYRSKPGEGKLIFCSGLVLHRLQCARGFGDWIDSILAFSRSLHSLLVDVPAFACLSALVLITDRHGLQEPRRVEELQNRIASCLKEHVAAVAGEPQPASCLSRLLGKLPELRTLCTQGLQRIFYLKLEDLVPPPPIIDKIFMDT

With CCCCCCCC(=O)c1c(O)cc(O)cc1CC(=O)OCC [Cytosporone B, cytosporone B] the “Luciferase activity (fold), Nur77” value [1] was 13.029 fold and 14.4047 fold and 12.8586 fold and the “Luciferase activity (fold), Nur77” value ([1]; listed as cytosporone B) was “robustly increased”.

In the case of N[C@@H](Cc1ccc(O)c(O)c1)C(=O)O [L-DOPA], the “motor function, rotarod (in words)” value [2, 9] was “significantly rescued”, the “Latency to fall” value ([2]; Figure 4b, MPTP-induced mice, individual animal values) was 137.97 s and 138.13 s and 80.13 s and 101.23 s and 128.1 s and 204.93 s and 146.8 s and 175.2 s and 116.5 s and 196.07 s and the “motor function, pole test (in words)” value [3, 9] was “significantly rescued”. For the same molecule, the “Time to traverse” value ([3]; Figure 4c, MPTP-induced mice, individual animal values) was 8.78 s and 7.65 s and 6.89 s and 8.14 s and 4.4 s and 7.41 s and 5.91 s and 7.98 s and 7.2 s and 9.47 s, the “motor function, cylinder test (in words)” value [4, 9] was “significantly rescued” and the Number of rearing ([4]; Figure 4d, MPTP-induced mice, individual animal values) was 34 and 77 and 71 and 22 and 24 and 17 and 21 and 55 and 32 and 29. For the same molecule, the “Velocity” value [5] was 4.7 cm/s and 5.67 cm/s and 6.49 cm/s and 5.88 cm/s and 6.16 cm/s and 7.7 cm/s and 9.82 cm/s and 6.86 cm/s and 7.1 cm/s and 6.45 cm/s and 7.2 cm/s, the “Duration to stay (sec), New bedding” value ([5]; New bedding) was 183.25 s and 108.99 s and 116.25 s and 132.99 s and 167.47 s and 141.68 s and 212.98 s and 167.63 s and 167.4 s and 102.43 s and 140.79 s and the “Duration to stay (sec), Old bedding” value ([5]; Old bedding) was 133.6 s and 197.16 s and 159.56 s and 114.75 s and 189.57 s and 183.55 s and 166.31 s and 132.11 s and 158.67 s and 90.56 s and 134.77 s. For the same molecule, the “abnormal involuntary movements (AIMs) (in words)” value ([6]; CQ 40, 4A7C-301 5, L-DOPA 50 mg/kg/day, i.p.) was “severe AIMs”, the “AIMs score (20-140 min)” value ([6]; day 2) was 7 and 5.5 and 11 (2×) and 6 and 14 and 20 and 4 and 12 and 5 and 16.3 and the “AIMs score (20-140 min)” value ([6]; day 4) was 9 and 13 and 14 and 12 (2×) and 16 (2×) and 17 (2×) and 27 (2×). The “AIMs score (20-140 min)” value ([6]; day 7) was 21.5 and 27.5 and 12 and 55 and 25.5 and 35 and 14 and 56 and 31.5 and 46 and 20, the “AIMs score (20-140 min)” value ([6]; day 9) was 23 (2×) and 26 and 21 (3×) and 19 (2×) and 42 and 18 and 44 and the “AIMs score (20-140 min)” value ([6]; day 11) was 28 and 33 and 23 and 27 and 20 and 35 (2×) and 12 and 55.5 and 30.5 and 61. The “AIMs score (20-140 min)” value ([6]; day 13) was 63.5 and 30.5 and 43 and 32.5 and 36 and 50 and 34 and 34.5 and 53.25 and 63 and 56, the “AIMs score (20-140 min)” value ([6]; day 16) was 110.5 and 38.5 (2×) and 56 and 60.5 and 40.5 and 47.5 and 84 and 48.5 and 67.5 and 83.5 and the “TH+ neurons in SNpc (% of control)” value ([7]; Figure 4j) was 85.08 % of control and 29.95 % of control and 41.78 % of control and 36.5 % of control and 16.11 % of control and 47.32 % of control and 20.39 % of control. For the same molecule, the “NeuN+ neurons in SNpc (% of control)” value ([7]; Figure 4k) was 54.87 % of control and 63.58 % of control and 65.33 % of control and 79.48 % of control, the “TH fiber density in STR (% of control)” value ([7]; Figure 4h) was 32.4 % of control and 36.19 % of control and 33.35 % of control and 30.68 % of control and 30.71 % of control and 45.79 % of control and 28.8 % of control and the “Iba-1+ cells in STR (% of control)” value ([8]; Figure 4m) was 163.11 % of control and 168.08 % of control and 185.26 % of control and 234.36 % of control and 189.06 % of control and 208.32 % of control and 222.78 % of control. For the same molecule, the “Iba-1+ cells in SNpc (% of control)” value ([8]; Figure 4n) was 319.52 % of control and 324.44 % of control and 366.71 % of control and 419.8 % of control and 373.6 % of control and 282.16 % of control and 446.35 % of control.
